Test [1] concerns the target Mitogen-activated protein kinase 14 (Homo sapiens, UniProt Q16539). Put plainly: Inhibition of human recombinant p38alpha MAPK expressed in Escherichia coli by radioisotopic protein kinase assay.
For test [2], the target named is T1, TGF-beta receptor type-1 (Homo sapiens, UniProt P36897).
T1 sequence (P36897 whole entry): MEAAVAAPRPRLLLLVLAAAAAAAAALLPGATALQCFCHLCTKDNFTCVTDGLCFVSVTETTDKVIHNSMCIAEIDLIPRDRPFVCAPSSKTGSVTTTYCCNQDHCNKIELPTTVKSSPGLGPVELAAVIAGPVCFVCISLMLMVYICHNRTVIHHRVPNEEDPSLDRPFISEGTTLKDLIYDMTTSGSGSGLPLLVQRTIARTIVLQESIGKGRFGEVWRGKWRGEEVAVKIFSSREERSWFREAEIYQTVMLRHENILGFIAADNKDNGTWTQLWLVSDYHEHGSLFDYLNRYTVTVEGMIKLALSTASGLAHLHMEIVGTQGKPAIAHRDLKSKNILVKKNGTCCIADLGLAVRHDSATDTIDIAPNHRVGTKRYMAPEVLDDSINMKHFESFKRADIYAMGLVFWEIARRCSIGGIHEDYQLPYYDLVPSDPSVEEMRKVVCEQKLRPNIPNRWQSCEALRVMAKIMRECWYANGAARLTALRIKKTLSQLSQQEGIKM
Put plainly: Inhibition of GST fused human recombinant ALK5 expressed in Sf9 cells by radioisotopic protein kinase assay.

The term IC50 denotes the concentration at which inhibition is half-maximal.

Chain of Mitogen-activated protein kinase 14 (Q16539 whole entry): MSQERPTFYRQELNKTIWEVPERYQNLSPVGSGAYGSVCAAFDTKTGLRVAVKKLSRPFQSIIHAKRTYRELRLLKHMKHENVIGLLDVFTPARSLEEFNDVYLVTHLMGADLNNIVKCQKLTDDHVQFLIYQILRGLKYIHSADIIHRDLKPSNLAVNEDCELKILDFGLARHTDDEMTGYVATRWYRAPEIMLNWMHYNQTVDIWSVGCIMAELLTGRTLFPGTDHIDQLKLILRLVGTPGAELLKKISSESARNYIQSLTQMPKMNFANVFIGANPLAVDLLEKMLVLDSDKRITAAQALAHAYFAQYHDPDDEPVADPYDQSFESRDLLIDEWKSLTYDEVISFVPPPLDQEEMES

As to `COc1nccc(-c2[nH]c(Cc3cccc(C(N)=O)c3)nc2-c2ccc(F)cc2)n1`, the results for the IC50 in test [1] and in test [2] were 48.5 nM and over 1000 nM, respectively.
On the same counts, the results for `COc1nccc(-c2[nH]c(Cc3cccc(C#N)c3)nc2-c2ccc(F)cc2)n1` are 62.8 nM and over 1000 nM.
For `COc1nccc(-c2c(-c3ccc(F)cc3)ncn2Cc2ccc(C(N)=O)cc2)n1` the same measures were 916 nM and over 1000 nM.
On the same counts, the results for `C[C@H](Nc1nccc(-c2ncn(Cc3cccc(C(N)=O)c3)c2-c2ccc(F)cc2)n1)c1ccccc1` are over 1000 nM and over 1000 nM.
Turning to `COc1ccc(CNc2nccc(-c3[nH]c(Cc4cccc(C#N)c4)nc3-c3ccc(F)cc3)n2)cc1`, the IC50 in test [1] is 148 nM; in test [2], over 1000 nM.
For `COc1nccc(-c2c(-c3ccc(F)cc3)ncn2Cc2cccc(C(N)=O)c2)n1` the same measures were 225 nM and over 1000 nM.
On the same counts, the results for `C[C@H](Nc1nccc(-c2c(-c3ccc(F)cc3)ncn2Cc2ccc(C(N)=O)cc2)n1)c1ccccc1` are 55.6 nM and over 1000 nM.
On the same counts, the results for `COc1nccc(-c2c(-c3ccc(F)cc3)ncn2Cc2cccc(C#N)c2)n1` are 260 nM and over 1000 nM.
As to `C[C@H](Nc1nccc(-c2c(-c3ccc(F)cc3)ncn2Cc2ccc(C#N)cc2)n1)c1ccccc1`, the IC50 was 87.1 nM in test [1] and over 1000 nM in test [2].
Take `NC(=O)c1cccc(Cn2cnc(-c3ccc(F)cc3)c2-c2ccnc(N)n2)c1`: the IC50 in test [1] was 344 nM; in test [2], over 1000 nM.
In the case of `C[C@H](Nc1nccc(-c2c(-c3ccc(F)cc3)ncn2Cc2cccc(C(N)=O)c2)n1)c1ccccc1`, the concentration for half-maximal inhibition (IC50) in test [1] was 55.1 nM; in test [2], over 1000 nM.
For `COc1nccc(-c2c(-c3ccc(F)cc3)ncn2Cc2ccc(C#N)cc2)n1` the same measures were 859 nM and over 1000 nM.
On the same counts, the results for `C[C@H](Nc1nccc(-c2[nH]c(Cc3cccc(C#N)c3)nc2-c2ccc(F)cc2)n1)c1ccccc1` are 95.4 nM and over 1000 nM.
For `COc1nccc(-c2ncn(Cc3cccc(C(N)=O)c3)c2-c2ccc(F)cc2)n1` the same measures were over 1000 nM and over 1000 nM.
Take `C[C@H](Nc1nccc(-c2[nH]c(Cc3cccc(C(N)=O)c3)nc2-c2ccc(F)cc2)n1)c1ccccc1`: the half-maximal inhibitory concentration (IC50) was 78 nM in test [1] and over 1000 nM in test [2].
For `COc1nccc(-c2ncn(Cc3ccc(C(N)=O)cc3)c2-c2ccc(F)cc2)n1` the same measures were over 1000 nM and over 1000 nM.
On the same counts, the results for `C[C@H](Nc1nccc(-c2ncn(Cc3ccc(C(N)=O)cc3)c2-c2ccc(F)cc2)n1)c1ccccc1` are over 1000 nM and over 1000 nM.
As for `COc1ccc(CNc2nccc(-c3c(-c4ccc(F)cc4)ncn3Cc3cccc(C#N)c3)n2)cc1`, the half-inhibitory concentration (IC50) in test [1] was 191 nM; in test [2], over 1000 nM.
For `C[C@H](Nc1nccc(-c2c(-c3ccc(F)cc3)ncn2Cc2cccc(C#N)c2)n1)c1ccccc1` the same measures were 140 nM and over 1000 nM.
For `N#Cc1cccc(Cn2cnc(-c3ccc(F)cc3)c2-c2ccnc(NC3CC3)n2)c1` the same measures were 62.6 nM and over 1000 nM.
Regarding `Cc1cccc(-c2[nH]c(Cc3cccc(C(N)=O)c3)nc2-c2ccc3nccnc3c2)n1`, the IC50 in test [1] turned out to be 4300 nM.
With `COc1ccc(CNc2nccc(-c3ncn(Cc4cccc(C#N)c4)c3-c3ccc(F)cc3)n2)cc1`, the IC50 in test [1] and in test [2] was over 1000 nM throughout.
Consider `N#Cc1cccc(Cn2cnc(-c3ccnc(N)n3)c2-c2ccc(F)cc2)c1`, for which the concentration for half-maximal inhibition (IC50) in test [1] and in test [2] was over 1000 nM each time.
With `NC(=O)c1cccc(Cn2cnc(-c3ccnc(N)n3)c2-c2ccc(F)cc2)c1`, the 50% inhibitory concentration (IC50) in test [1] and in test [2] was over 1000 nM throughout.
For `C[C@H](Nc1nccc(-c2ncn(Cc3cccc(C#N)c3)c2-c2ccc(F)cc2)n1)c1ccccc1`, the IC50 in test [1] and in test [2] was over 1000 nM each time.
Turning to `C[C@H](Nc1nccc(-c2ncn(Cc3ccc(C#N)cc3)c2-c2ccc(F)cc2)n1)c1ccccc1`, the concentration for half-maximal inhibition (IC50) in test [1] and in test [2] was over 1000 nM each time.
For the molecule `COc1nccc(-c2ncn(Cc3ccc(C#N)cc3)c2-c2ccc(F)cc2)n1`, the half-maximal inhibitory concentration (IC50) in test [1] and in test [2] was over 1000 nM throughout.
As for `N#Cc1cccc(Cn2cnc(-c3ccnc(NC4CC4)n3)c2-c2ccc(F)cc2)c1`, the IC50 in test [1] and in test [2] was over 1000 nM each time.
For `NC(=O)N(c1nc(-c2ccc(F)cc2)cs1)c1c(Cl)cccc1Cl`, the half-maximal inhibitory concentration (IC50) in test [1] came out at 822 nM.
On to `N#Cc1cccc(Cc2nc(-c3ccc(F)cc3)c(-c3ccnc(N)n3)[nH]2)c1`, for which the 50% inhibitory concentration (IC50) was 28 nM in test [1] and over 1000 nM in test [2].
Turning to `NC(=O)c1cccc(Cc2nc(-c3ccc(F)cc3)c(-c3ccnc(NC4CC4)n3)[nH]2)c1`, the half-inhibitory concentration (IC50) in test [1] is 31 nM; in test [2], over 1000 nM.
On the same counts, the results for `N#Cc1cccc(Cc2nc(-c3ccc(F)cc3)c(-c3ccnc(NC4CC4)n3)[nH]2)c1` are 54.4 nM and over 1000 nM.
For `NC(=O)c1cccc(Cn2cnc(-c3ccnc(NC4CC4)n3)c2-c2ccc(F)cc2)c1` the same measures were over 1000 nM and over 1000 nM.
On the same counts, the results for `N#Cc1cccc(Cn2cnc(-c3ccc(F)cc3)c2-c2ccnc(N)n2)c1` are 101 nM and over 1000 nM.
In the case of `NC(=O)c1cccc(Cn2cnc(-c3ccc(F)cc3)c2-c2ccnc(NC3CC3)n2)c1`, the figures for the IC50 in test [1] and in test [2] were 27.6 nM and over 1000 nM, respectively.
On the same counts, the results for `COc1nccc(-c2ncn(Cc3cccc(C#N)c3)c2-c2ccc(F)cc2)n1` are over 1000 nM and over 1000 nM.

Source of the values: ChEMBL document CHEMBL1155059, “Synthesis and biological evaluation of trisubstituted imidazole derivatives as inhibitors of p38alpha mitogen-activated protein kinase” (Bioorg Med Chem Lett, 2008).
